Results reported in PubChem BioAssay (NCI).
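Following 48 hours of exposure in 96-well plates, responses at five concentrations were used to interpolate endpoints linearly. TGI: concentration producing complete growth inhibition.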

What was measured:
Assay in all cases: NCI anticancer screen, dose series, 48 h
SK-MEL-5 melanoma = test system: SK-MEL-5 melanoma
SK-MEL-28 melanoma = test system: SK-MEL-28 melanoma
MCF7 breast = test system: MCF7 breast
PC-3 prostate = test system: PC-3 prostate
RPMI-8226 leukemia = test system: RPMI-8226 leukemia
HCC-2998 colon = test system: HCC-2998 colon
RXF 393 renal = test system: RXF 393 renal
CCRF-CEM leukemia = test system: CCRF-CEM leukemia
SK-OV-3 ovarian = test system: SK-OV-3 ovarian
SF-295 CNS = test system: SF-295 CNS
SR leukemia = test system: SR leukemia
HCT-15 colon = test system: HCT-15 colon
COLO 205 colon = test system: COLO 205 colon
OVCAR-8 ovarian = test system: OVCAR-8 ovarian
MDA-MB-231 breast = test system: MDA-MB-231 breast
MOLT-4 leukemia = test system: MOLT-4 leukemia
HL-60(TB) leukemia = test system: HL-60(TB) leukemia
TK-10 renal = test system: TK-10 renal
M14 melanoma = test system: M14 melanoma
CAKI-1 renal = test system: CAKI-1 renal
K-562 leukemia = test system: K-562 leukemia
HT29 colon = test system: HT29 colon
SF-268 CNS = test system: SF-268 CNS
MALME-3M melanoma = test system: MALME-3M melanoma
786-0 renal = test system: 786-0 renal
UACC-257 melanoma = test system: UACC-257 melanoma
KM12 colon = test system: KM12 colon
NCI-H23 lung = test system: NCI-H23 lung
UACC-62 melanoma = test system: UACC-62 melanoma
HOP-62 NSCLC = test system: HOP-62 NSCLC
SN12C renal = test system: SN12C renal
DU-145 prostate = test system: DU-145 prostate
IGROV1 ovarian = test system: IGROV1 ovarian
EKVX NSCLC = test system: EKVX NSCLC
SNB-75 CNS = test system: SNB-75 CNS
T-47D breast = test system: T-47D breast
MDA-N = test system: MDA-N
SW-620 colon = test system: SW-620 colon
A549 NSCLC = test system: A549 NSCLC

## CC(C)(C)[Si](C)(C)Oc1cc(CO)cc2c1cc(=N)o[n+]2[O-]
SK-MEL-5 melanoma
  TGI: > 10 µM
SK-MEL-28 melanoma
  TGI: > 10 µM
MCF7 breast
  TGI: 9.25 µM
PC-3 prostate
  TGI: > 10 µM
RPMI-8226 leukemia
  TGI: > 10 µM
HCC-2998 colon
  TGI: > 10 µM
RXF 393 renal
  TGI: > 10 µM
CCRF-CEM leukemia
  TGI: > 10 µM
SK-OV-3 ovarian
  TGI: > 10 µM
SF-295 CNS
  TGI: > 10 µM
SR leukemia
  TGI: 7.58 µM
HCT-15 colon
  TGI: > 10 µM
COLO 205 colon
  TGI: > 10 µM
OVCAR-8 ovarian
  TGI: > 10 µM
MDA-MB-231 breast
  TGI: > 10 µM
MOLT-4 leukemia
  TGI: 9.28 µM
HL-60(TB) leukemia
  TGI: > 10 µM
TK-10 renal
  TGI: > 10 µM
M14 melanoma
  TGI: > 10 µM
CAKI-1 renal
  TGI: > 10 µM
K-562 leukemia
  TGI: > 10 µM
HT29 colon
  TGI: > 10 µM
SF-268 CNS
  TGI: > 10 µM
MALME-3M melanoma
  TGI: > 10 µM
786-0 renal
  TGI: > 10 µM
UACC-257 melanoma
  TGI: > 10 µM
KM12 colon
  TGI: > 10 µM
NCI-H23 lung
  TGI: > 10 µM
UACC-62 melanoma
  TGI: > 10 µM
HOP-62 NSCLC
  TGI: > 10 µM
SN12C renal
  TGI: > 10 µM
DU-145 prostate
  TGI: > 10 µM
IGROV1 ovarian
  TGI: > 10 µM
EKVX NSCLC
  TGI: > 10 µM
SNB-75 CNS
  TGI: > 10 µM
T-47D breast
  TGI: > 10 µM
MDA-N
  TGI: > 10 µM
SW-620 colon
  TGI: > 10 µM
A549 NSCLC
  TGI: > 10 µM
